A word on the inhibition: it is the share of the control response that was lost under treatment. For orientation: inhibition in vivo means the drop in the measured response relative to a control, in per cent. Broadly, the pIC50 is −log10 of the IC50, conventionally taken in molar units.

The values that follow come from ChEMBL document CHEMBL3862010, “N-Arylsulfonyl-α-amino carboxamides are potent and selective inhibitors of the chemokine receptor CCR10 that show efficacy in the murine DNFB model of contact hypersensitivity” (Bioorg Med Chem Lett, 2016).

The target of series [1] is 5-hydroxytryptamine receptor 3A (Homo sapiens) (UniProt P46098). The series can be described thus: Binding affinity to human 5-HT3 receptor at 10 uM relative to control.
Chain of 5-hydroxytryptamine receptor 3A (Homo sapiens) (P46098 whole entry): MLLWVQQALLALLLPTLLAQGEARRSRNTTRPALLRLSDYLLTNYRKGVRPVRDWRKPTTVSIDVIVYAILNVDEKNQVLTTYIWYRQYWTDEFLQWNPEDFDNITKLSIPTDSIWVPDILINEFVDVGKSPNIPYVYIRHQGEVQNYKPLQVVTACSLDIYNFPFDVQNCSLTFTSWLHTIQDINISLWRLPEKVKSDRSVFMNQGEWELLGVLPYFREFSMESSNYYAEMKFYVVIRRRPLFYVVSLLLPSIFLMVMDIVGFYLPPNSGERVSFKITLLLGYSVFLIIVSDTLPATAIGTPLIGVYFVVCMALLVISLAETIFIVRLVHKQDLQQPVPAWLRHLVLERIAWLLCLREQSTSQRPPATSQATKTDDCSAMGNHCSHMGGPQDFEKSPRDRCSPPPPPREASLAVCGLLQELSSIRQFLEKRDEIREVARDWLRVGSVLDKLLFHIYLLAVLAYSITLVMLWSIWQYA
In series [2] the target is Adrenergic receptor beta (Rattus norvegicus) (UniProt P18090+P10608+P26255). The series can be described thus: Binding affinity to rat adrenergic beta receptor at 10 uM relative to control.
Series [3] concerns the target Type-1 angiotensin II receptor (Homo sapiens) (UniProt P30556). The series can be described thus: Binding affinity to human AT1 receptor at 10 uM relative to control.
Series [4] has as its target Histamine H1 receptor (Homo sapiens) (UniProt P35367). The series can be described thus: Binding affinity to human histamine H1 receptor at 10 uM relative to control.
Series [5] deals with C-C chemokine receptor type 4 (Homo sapiens) (UniProt P51679). The series can be described thus: Antagonist activity at human CCR4 assessed as inhibition of CCL22-induced calcium flux at 10 uM relative to control. It counts as functional. Background: Calcium flux is commonly read through the fluorescence of an indicator in the cells.
Chain of C-C chemokine receptor type 4 (Homo sapiens) (P51679 whole entry): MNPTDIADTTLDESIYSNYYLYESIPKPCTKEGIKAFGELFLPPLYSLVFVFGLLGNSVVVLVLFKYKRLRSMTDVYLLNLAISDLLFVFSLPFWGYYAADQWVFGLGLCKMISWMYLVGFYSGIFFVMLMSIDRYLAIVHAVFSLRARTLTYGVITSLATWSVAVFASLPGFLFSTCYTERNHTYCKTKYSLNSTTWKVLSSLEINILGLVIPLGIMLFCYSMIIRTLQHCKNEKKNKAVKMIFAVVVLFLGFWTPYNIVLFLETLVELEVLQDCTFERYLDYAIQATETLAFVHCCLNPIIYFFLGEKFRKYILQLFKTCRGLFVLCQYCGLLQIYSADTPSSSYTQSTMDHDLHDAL
The species named for series [6] is Homo sapiens. The series can be described thus: Binding affinity to human IL-8 receptor at 10 uM relative to control.
Series [7] concerns the target Adrenergic receptor alpha-2 (Rattus norvegicus) (UniProt P22086+P19328+P22909). The series can be described thus: Binding affinity to rat adrenergic alpha2 receptor at 10 uM relative to control.
Series [8] is filed under the species Homo sapiens. The series can be described thus: Binding affinity to human nicotinic acetylcholine receptor at 10 uM relative to control.
The species named for series [9] is Rattus norvegicus. The series can be described thus: Binding affinity to rat GABA-A receptor at 10 uM relative to control.
In series [10] the test system is Mus musculus. The series can be described thus: Antiinflammatory activity in Balb/C mouse model of contact hypersensitivity assessed as inhibition of DNFB-stimulated ear swelling administered ip bid at 0 and 8 hrs measured 24 hrs post DNFB stimulation. It counts as functional, organism-based.
The species named for series [11] is Rattus norvegicus. The series can be described thus: Binding affinity to rat muscarinic acetylcholine receptor at 10 uM relative to control.
For series [12], the target named is D(1A) dopamine receptor (Homo sapiens) (UniProt P21728). The series can be described thus: Binding affinity to human dopamine D1 receptor at 10 uM relative to control.
Chain of D(1A) dopamine receptor (Homo sapiens) (P21728 whole entry): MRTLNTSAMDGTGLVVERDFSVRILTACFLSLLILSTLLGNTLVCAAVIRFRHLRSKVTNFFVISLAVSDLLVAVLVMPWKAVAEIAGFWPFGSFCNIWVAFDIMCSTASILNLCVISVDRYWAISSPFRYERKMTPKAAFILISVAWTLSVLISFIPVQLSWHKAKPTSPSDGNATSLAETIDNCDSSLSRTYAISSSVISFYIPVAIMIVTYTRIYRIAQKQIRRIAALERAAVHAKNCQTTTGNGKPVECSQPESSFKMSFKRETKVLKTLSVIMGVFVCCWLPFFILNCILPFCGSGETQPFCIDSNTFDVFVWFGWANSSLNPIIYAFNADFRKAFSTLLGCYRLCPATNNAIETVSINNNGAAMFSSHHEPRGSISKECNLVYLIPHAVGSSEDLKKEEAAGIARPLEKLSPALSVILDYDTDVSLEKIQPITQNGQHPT
Series [13] is filed under the species Rattus norvegicus. The series can be described thus: Binding affinity to rat glutamate receptor at 10 uM relative to control.
The species entered for series [14] is Rattus norvegicus. The series can be described thus: Binding affinity to rat 5-HT1 receptor at 10 uM relative to control.
The target of series [15] is B2 bradykinin receptor (Homo sapiens) (UniProt P30411). The series can be described thus: Binding affinity to human B2 bradykinin receptor at 10 uM relative to control.
Chain of B2 bradykinin receptor (Homo sapiens) (P30411 whole entry): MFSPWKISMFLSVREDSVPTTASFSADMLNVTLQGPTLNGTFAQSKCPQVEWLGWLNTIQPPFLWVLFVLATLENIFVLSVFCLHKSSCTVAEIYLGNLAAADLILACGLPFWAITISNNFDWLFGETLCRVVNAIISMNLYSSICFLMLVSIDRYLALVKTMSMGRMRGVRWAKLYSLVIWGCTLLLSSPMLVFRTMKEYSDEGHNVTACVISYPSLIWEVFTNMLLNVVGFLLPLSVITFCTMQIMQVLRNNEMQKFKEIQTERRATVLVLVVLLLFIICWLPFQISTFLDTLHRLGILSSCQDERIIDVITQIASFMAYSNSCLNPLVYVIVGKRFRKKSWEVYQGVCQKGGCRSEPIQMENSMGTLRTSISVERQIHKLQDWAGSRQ
Series [16] concerns the target D(2) dopamine receptor (Homo sapiens) (UniProt P14416). The series can be described thus: Binding affinity to human dopamine D2L receptor at 10 uM relative to control.
For series [17], the species on record is Rattus norvegicus. The series can be described thus: Binding affinity to rat GABA-B receptor at 10 uM relative to control.
In series [18] the target is Adrenergic receptor alpha-1 (Rattus norvegicus) (UniProt P15823+P23944+P43140). The series can be described thus: Binding affinity to rat adrenergic alpha1 receptor at 10 uM relative to control.
The target in series [19] is Histamine H2 receptor (Homo sapiens) (UniProt P25021). The series can be described thus: Binding affinity to human histamine H2 receptor at 10 uM relative to control.
Chain of Histamine H2 receptor (Homo sapiens) (P25021 whole entry): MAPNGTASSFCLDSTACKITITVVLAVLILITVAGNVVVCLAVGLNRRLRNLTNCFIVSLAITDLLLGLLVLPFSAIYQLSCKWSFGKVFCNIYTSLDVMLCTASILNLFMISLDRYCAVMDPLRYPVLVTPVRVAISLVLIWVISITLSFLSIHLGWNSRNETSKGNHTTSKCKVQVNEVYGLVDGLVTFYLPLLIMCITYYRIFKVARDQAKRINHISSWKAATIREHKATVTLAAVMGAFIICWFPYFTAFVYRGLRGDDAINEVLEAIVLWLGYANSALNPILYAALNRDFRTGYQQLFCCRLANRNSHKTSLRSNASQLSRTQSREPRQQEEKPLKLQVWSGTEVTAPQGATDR
Series [20] addresses 5-hydroxytryptamine receptor 2A (Rattus norvegicus) (UniProt P14842). The series can be described thus: Binding affinity to rat 5-HT2 receptor at 10 uM relative to control.
Series [21] has as its target D(3) dopamine receptor (Homo sapiens) (UniProt P35462). The series can be described thus: Binding affinity to human dopamine D3 receptor at 10 uM relative to control.
Series [22] is described as follows: Plasma concentration in Balb/C mouse at 30 mg/kg, ip bid measured after 1 hr. It counts as ADME, organism-based. To be noted: Balb/C, plasma.
The test system of series [23] is Mus musculus. The series can be described thus: Antiinflammatory activity in Balb/C mouse model of contact hypersensitivity assessed as inhibition of DNFB-stimulated ear swelling at 100 mg/kg, ip bid administered at 0 and 8 hrs measured 24 hrs post DNFB stimulation. The format is functional.
The target in series [24] is T1, C-C chemokine receptor type 10 (Homo sapiens, UniProt P46092).
T1 sequence (P46092 whole entry): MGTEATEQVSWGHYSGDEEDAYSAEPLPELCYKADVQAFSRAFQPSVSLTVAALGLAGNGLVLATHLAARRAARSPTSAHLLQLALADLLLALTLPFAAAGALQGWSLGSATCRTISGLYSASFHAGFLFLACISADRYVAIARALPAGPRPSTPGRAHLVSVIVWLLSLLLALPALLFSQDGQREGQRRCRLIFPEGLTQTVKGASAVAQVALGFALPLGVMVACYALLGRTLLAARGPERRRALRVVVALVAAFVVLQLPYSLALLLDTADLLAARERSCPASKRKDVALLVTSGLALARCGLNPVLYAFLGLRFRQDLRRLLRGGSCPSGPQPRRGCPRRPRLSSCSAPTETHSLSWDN
The series can be described thus: Antagonist activity at human CCR10 expressed in CHOK1 cells coexpressing aequorin/Galphaq assessed as inhibition of human CCL27-dependent calcium flux in presence of coelenterazine H by chemiluminescence assay. To be noted: read-out: pIC50 (converted). The format is functional, cell-based, CHO-K1.

The nature of series [25]: Plasma concentration in Balb/C mouse at 100 mg/kg, ip bid measured after 7 hrs. It counts as ADME, organism-based.
Series [26] addresses T2, C-C chemokine receptor type 10 (Mus musculus, UniProt Q9JL21).
T2 sequence (Q9JL21 whole entry): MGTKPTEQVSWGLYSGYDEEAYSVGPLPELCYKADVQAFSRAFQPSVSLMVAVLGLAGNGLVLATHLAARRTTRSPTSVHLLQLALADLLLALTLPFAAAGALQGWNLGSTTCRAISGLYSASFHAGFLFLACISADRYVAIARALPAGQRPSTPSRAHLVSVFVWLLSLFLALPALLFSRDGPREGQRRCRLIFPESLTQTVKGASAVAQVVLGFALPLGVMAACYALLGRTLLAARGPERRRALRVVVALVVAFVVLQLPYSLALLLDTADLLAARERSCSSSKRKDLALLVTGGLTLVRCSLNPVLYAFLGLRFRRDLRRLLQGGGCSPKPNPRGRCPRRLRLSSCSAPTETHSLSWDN
The series can be described thus: Antagonist activity at mouse CCR10 expressed in CHOK1 cells coexpressing aequorin/Galphaq assessed as inhibition of CCL27-dependent calcium flux in presence of coelenterazine H by chemiluminescence assay. It counts as functional, cell-based, CHO-K1.

Series [27] in a line: Protein binding in Balb/C mouse plasma at 100 mg/kg, ip bid. It counts as ADME, organism-based. To be noted: Balb/C, plasma, read-out: PPB.
Series [28] concerns the target C-C chemokine receptor type 6 (Homo sapiens, UniProt P51684). The series can be described thus: Antagonist activity at human CCR6 assessed as inhibition of CCL20/MIP-3alpha-induced calcium flux. It counts as functional.
Series [29] can be described thus: Plasma concentration in Balb/C mouse at 100 mg/kg, ip bid measured after 1 hr. It counts as ADME, organism-based. Particulars: in vivo.
The nature of series [30]: Time at which plasma concentration stays near or above in vitro murine IC50 level in Balb/C mouse at 100 mg/kg, ip bid. The format is ADME, organism-based. To be noted: in vivo.

pIC50: −log10 of the molar value.

Chain of D(3) dopamine receptor (Homo sapiens) (P35462 whole entry): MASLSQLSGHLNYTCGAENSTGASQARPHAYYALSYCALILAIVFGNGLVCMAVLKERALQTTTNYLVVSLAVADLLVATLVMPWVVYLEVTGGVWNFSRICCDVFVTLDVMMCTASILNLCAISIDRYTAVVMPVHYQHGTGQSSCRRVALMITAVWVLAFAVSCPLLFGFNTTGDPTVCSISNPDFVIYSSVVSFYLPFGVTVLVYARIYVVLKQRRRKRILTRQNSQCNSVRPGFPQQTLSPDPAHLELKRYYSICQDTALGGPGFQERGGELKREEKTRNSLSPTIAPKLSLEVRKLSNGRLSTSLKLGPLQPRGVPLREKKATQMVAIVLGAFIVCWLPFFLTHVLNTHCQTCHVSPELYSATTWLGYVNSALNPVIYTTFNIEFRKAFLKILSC
Chain of Histamine H1 receptor (Homo sapiens) (P35367 whole entry): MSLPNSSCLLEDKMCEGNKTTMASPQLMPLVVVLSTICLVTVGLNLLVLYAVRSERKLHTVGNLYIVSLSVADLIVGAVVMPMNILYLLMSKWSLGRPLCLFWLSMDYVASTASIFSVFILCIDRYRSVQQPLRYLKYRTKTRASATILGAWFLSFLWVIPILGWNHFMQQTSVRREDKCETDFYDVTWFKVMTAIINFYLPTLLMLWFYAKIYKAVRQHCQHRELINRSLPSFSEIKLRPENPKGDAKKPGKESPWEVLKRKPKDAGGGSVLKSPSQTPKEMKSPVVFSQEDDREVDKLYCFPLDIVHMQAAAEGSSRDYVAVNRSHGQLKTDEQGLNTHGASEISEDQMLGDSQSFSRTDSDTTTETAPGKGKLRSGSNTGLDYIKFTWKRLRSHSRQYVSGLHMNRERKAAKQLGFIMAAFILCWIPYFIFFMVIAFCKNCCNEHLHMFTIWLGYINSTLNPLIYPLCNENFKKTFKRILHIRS
Chain of Type-1 angiotensin II receptor (Homo sapiens) (P30556 whole entry): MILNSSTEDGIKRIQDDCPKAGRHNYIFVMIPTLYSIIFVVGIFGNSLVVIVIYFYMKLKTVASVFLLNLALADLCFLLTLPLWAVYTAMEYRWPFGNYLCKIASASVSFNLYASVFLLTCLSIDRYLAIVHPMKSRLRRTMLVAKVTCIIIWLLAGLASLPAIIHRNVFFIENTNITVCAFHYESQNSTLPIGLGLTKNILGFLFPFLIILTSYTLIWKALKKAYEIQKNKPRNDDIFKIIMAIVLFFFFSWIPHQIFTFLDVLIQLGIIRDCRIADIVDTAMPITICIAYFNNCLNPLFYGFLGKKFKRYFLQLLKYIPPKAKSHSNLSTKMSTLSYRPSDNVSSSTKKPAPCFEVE
Chain of C-C chemokine receptor type 6 (P51684 whole entry): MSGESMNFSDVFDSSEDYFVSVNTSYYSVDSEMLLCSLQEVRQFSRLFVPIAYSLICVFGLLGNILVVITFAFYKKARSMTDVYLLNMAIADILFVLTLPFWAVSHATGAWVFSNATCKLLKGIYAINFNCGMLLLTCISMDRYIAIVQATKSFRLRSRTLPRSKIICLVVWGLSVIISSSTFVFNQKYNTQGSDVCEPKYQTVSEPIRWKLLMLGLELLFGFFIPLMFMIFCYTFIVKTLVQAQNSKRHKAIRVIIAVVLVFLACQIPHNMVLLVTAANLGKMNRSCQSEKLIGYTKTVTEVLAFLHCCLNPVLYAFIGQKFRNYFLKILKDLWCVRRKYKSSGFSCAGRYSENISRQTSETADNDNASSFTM
Chain of 5-hydroxytryptamine receptor 2A (Rattus norvegicus) (P14842 whole entry): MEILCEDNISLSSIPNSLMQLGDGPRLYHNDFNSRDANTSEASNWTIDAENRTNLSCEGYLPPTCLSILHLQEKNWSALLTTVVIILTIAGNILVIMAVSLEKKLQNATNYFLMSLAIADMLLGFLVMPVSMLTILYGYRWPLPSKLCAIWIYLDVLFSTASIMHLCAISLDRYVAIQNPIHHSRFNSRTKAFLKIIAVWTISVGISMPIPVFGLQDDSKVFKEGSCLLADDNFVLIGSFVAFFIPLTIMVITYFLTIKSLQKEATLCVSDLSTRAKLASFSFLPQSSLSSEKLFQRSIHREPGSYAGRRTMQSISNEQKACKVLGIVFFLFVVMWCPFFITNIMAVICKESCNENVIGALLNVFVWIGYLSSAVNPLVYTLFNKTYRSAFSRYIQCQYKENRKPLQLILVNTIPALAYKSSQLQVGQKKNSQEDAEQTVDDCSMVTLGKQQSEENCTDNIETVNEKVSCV
Chain of D(2) dopamine receptor (Homo sapiens) (P14416 whole entry): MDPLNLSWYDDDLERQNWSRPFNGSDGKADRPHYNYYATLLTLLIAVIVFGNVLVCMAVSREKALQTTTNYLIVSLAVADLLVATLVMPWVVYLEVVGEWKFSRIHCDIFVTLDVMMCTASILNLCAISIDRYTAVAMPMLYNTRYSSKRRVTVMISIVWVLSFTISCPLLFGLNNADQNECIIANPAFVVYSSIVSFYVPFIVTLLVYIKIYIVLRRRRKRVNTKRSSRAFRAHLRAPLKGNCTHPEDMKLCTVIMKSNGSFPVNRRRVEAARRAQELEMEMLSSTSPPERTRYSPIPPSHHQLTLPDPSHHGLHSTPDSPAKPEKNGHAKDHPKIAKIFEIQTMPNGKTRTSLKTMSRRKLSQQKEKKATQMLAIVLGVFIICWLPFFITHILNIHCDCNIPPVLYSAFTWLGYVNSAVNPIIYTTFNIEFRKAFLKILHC

Turning to `CC1CCN(C(=O)C(CCn2cccc2C#N)NS(=O)(=O)c2cccc3[nH]ccc23)CC1` (stereo in doubt; form 1) [listing 1 of 2 here], the Activity (in series [1]; in [2]; in series [3]; in series [4]; in the series filed under Homo sapiens [6]; in series [7]) was less than 10% each time. Moreover, the Activity in the series listed under Homo sapiens [8] was less than 10%; in the series filed under Rattus norvegicus [9], less than 10%; in the series listed under Rattus norvegicus [11], 22%; in series [12], less than 10%; in the series listed under Rattus norvegicus [13] it was less than 10%; in the series filed under Rattus norvegicus [14], 19%. In addition, the Activity (in [15]; in series [16]; in the series listed under Rattus norvegicus [17]; in [18]; in series [19]; in [20]) was less than 10% each time. This molecule also returned an Activity in series [21] of less than 10%. Moreover, the inhibition in [5] is less than 10%; in the series on Mus musculus [10] it was “Dose-dependent effect”.
As to `CC1CCN(C(=O)C(CCn2cccc2C#N)NS(=O)(=O)c2cccc3[nH]ccc23)CC1` (stereo in doubt; form 1) [listing 2 of 2 here], the concentration at 1 h in series [22] stood at 3.7 µM. In addition, in the series with Mus musculus [23], the inhibition in vivo at 100 mg/kg turned out to be 75%. Moreover, the IC50 in series [24] was 1 nM. Further, the concentration at 7 h in series [25] was 0.2 µM. The pIC50 was 7.60 in series [26] and less than 5.00 in series [28]. In addition, in [27], the fraction unbound worked out at 0.01. Besides, the concentration in series [29] is 7.6 µM. Moreover, in series [30], the Time result is reported as “<= 8 hr”.
